Tested on: NPY Y2 receptor
Experiment: Hyperoxia/ischemia-induced retinal neovascularization (retinopathy) in newborn rats, fluorescent dextran flat-mount vessel count
Format: in vivo, rat (Sprague Dawley)
Conditions: for Retinal capillary vessel formation in fluorescein images: fluorescence microscopy of flat-mounted retinas, FIG. 3; for Quantitated neovascularization (amount of retinal vessels crossed by a constant length line), Mean ± SD / Quantitated neovascularization, Range: newborn rats, intraperitoneal treatment, retinas at age of 20 days; for Quantitated neovascularization (amount of retinal vessels crossed by a constant length line), Mean ± SD: cyclic hyperoxia 40%/80%; for Quantitated neovascularization, Range: cyclic hyperoxia; for Development of retinopathy: treated groups of rat puppies
From the text: The present study was undertaken to determine the impact of NPY Y2 receptor targeted intervention on neovascularization and development of retinopathy. Development of retinopathy was induced to newborn rats by cyclic hyperoxia and following relative ischemia-induced retinal neovascularization. Hyperoxemia is toxic to developing retinal vessels causing damage and hypoxia in the retina. After moving to normal air, relative hypoxia follows further promoting neovascularization of the retina.
Three groups of rat puppies were subjected for different treatments; 1) vehicle, 2) NPY Y2 receptor targeted antisense oligonucleotide sequence, and 3) scramble oligonucleotide sequence containing the same oligonucleotides as NPY Y2 receptor targeted antisense oligonucleotide sequence. The treatments were administered intraperitoneally. The retinal vessels were investigated and retinopathic changes were compared between treatment groups.
Retinopathy was assessed after injection of fluorescent-labelled dextran to the circulation. The eyes were flat-mounted on slides and the retinal vessels were visualized and investigated by fluorescence microscopy. Statistical differences were calculated between the study groups.
Study protocol was approved by the Joint Ethics Committee of Turku University. Development of retinopathy was induced to newborn rats (Sprague Dawley) by cyclic hyperoxia and following relative ischemia. Hyperoxia is toxic to developing retinal vessels causing damage and hypoxia in the retina, which induces neovascularization. After moving to normal air, relative hypoxia follows further promoting neovascularization of the retina. Hypoxia is one of the major causes of retinal neovascularization in human retinopathies also. The newborn rats were kept in a hyperoxic incubator with their mothers. Retinal neovascularization was induced simultaneously for all three groups of puppies. One treatment group consisted originally of 7 puppies, which underwent cyclic hyperoxia at the age of 3 days, continued until at the age of 14 days and remained in normal room air from the age of 14 to 17 days. The amount of oxygen inside the incubator was kept at 40% and 80% in 12 hour cycles for 10 days (days from 3 to 13).
The three groups of puppies were subjected for different treatments; 1) plain vehicle, 2) NPY Y2 receptor targeted antisense oligodeoxynucleotide sequence (5′-CCTCTGCACCTAATGGGCCC-3′ (SEQ ID NO:4), containing 20 thioate modified bases) diluted in vehicle and 3) scramble oligodeoxynucleotide sequence containing the same deoxynucleotides as NPY Y2 receptor targeted antisense oligodeoxynucleotide sequence but in a random order (5′-CCATGGTAATCCGCCGCTCC-3′ (SEQ ID NO:5), containing 20 thioate modified bases) diluted in vehicle. The treatments were administered intraperitoneally. The retinal vessels were investigated and retinopathic changes were compared between treatment groups. The used NPY Y2 receptor targeted antisense deoxynucleotide sequence was designed complementary to next 20 bases from NPY Y2 gene transcription initiation codon (ATG).
At the age of 20 days, rats were decapitated and eyes were collected. Retinopathy and retinal neovascularization was assessed after an injection of fluorescent-labelled dextran to the circulation trough heart puncture. One eye from each puppy was used for visualization of retinal vessels. The eyes were flat-mounted on slides and the retinal vessels were visualized and investigated by fluorescence microscopy. Pictures of retinas were acquired using a Leica DMR/DC 100 microscope and Leica DC Wiever software.
The amount of retinal capillaries was analyzed by counting the amount of vessels crossed by a constant length line using plot profile analysis (Image-J 2.6 program). Each retina was analyzed in 3-5 representative areas and the mean values were used for further statistical analysis. Only unfolded retinal preparations were used in order to avoid artificial images of neovascularization. […]

[1] = post hoc analysis, less neovascularization

5′-CCATGGTAATCCGCCGCTCC-3′ (CCATGGTAATCCGCCGCTCC; DNA, all phosphorothioate, methylation of C not given here) [Scramble, reference compound]
Retinal capillary vessel formation in fluorescein images: irregular and disrupted | Quantitated neovascularization (amount of retinal vessels crossed by a constant length line), Mean ± SD: 31.12 ± 0.93 | Quantitated neovascularization, Range: 30.33-32.25 | Difference in retinal neovascularization versus vehicle treatment group (post hoc analysis): no difference | Development of retinopathy: evident

5′-CCTCTGCACCTAATGGGCCC-3′ (antisense CCTCTGCACCTAATGGGCCC; DNA, all phosphorothioate, methylation of C not given here) [Y2-antisense, NPY Y2 receptor targeted antisense oligodeoxynucleotide, complementary to rat NPY Y2 mRNA, next 20 bases from initiation codon]
Retinal capillary vessel formation in fluorescein images: regular and continuous | Quantitated neovascularization (amount of retinal vessels crossed by a constant length line), Mean ± SD: 24.58 ± 0.84 | Quantitated neovascularization, Range: 23.75-25.75 | 95% confidence interval for the difference compared to scramble treatment group (post hoc analysis): 3.76-9.31 | 95% confidence interval for the difference compared to vehicle treatment group (post hoc analysis): 2.48-8.33 | Mean difference in neovascularization compared to scramble treatment group [1]: 6.53 | Mean difference in neovascularization compared to vehicle treatment group [1]: 5.40 | Development of retinopathy: prevented

From patent US20040006004A1, “Method for prevention and treatment of diseases or disorders related to excessive formation of vascular tissue or blood vessels” (priority 2002, published 2004)
